Results published in ChEMBL document CHEMBL3244160, “Novel arabinofuranosyl derivatives of cytosine resistant to enzymatic deamination and possessing potent antitumor activity” (J Med Chem, 1978).

Legend:
HeLa = experiment: Cytotoxicity against human HeLa cells assessed as growth inhibition; assay type: functional
L1210 [1] = experiment: Cytotoxicity against mouse L1210 cells assessed as growth inhibition; assay type: functional
L1210 [2] = experiment: Antitumor activity against mouse L1210 cells allografted in DBA/2 HaDD mouse assessed as survival at 75 mg/kg, ip bid administered for 2 days (reference value: 8.7 days); assay type: functional; settings: route intraperitoneal
[3] = Stability of the compound in presence of CR/dCR deaminase; assay type: ADME
L1210 [4] = experiment: Antitumor activity against mouse L1210 cells allografted in DBA/2 HaDD mouse assessed as survival at 40 mg/kg, ip bid administered for 2 days (reference value: 8.7 days); assay type: functional; settings: route intraperitoneal
MOLT-4 = experiment: Cytotoxicity against human MOLT4F cells assessed as growth inhibition; assay type: functional

Structure (SMILES) | GI50 (HeLa) | GI50 (L1210 [1]) | Survival (L1210 [2]) | Stability [3] | Survival (L1210 [4]) | GI50 (MOLT-4)
Nc1ccn([C@@H]2O[C@H](CO)[C@@H](O)[C@@H]2N)c(=O)n1 | 30 µM | 4 µM | >120 days | Stable |  | 
[N-]=[N+]=N[C@H]1[C@H](O)[C@@H](CO)O[C@H]1n1ccc(N)nc1=O [CYTARAZID] | 0.2 µM | 0.6 µM |  | Stable | >120 days | 0.07 µM
